Measurements: patent US12350276B2, “Methods for the treatment of cancer using 1-(4-{[4-(dimethylamino)piperidin-1-yl]carbonyl}phenyl)-3-[4-(4,6-dimorpholin-4-yl-1,3,5-triazin-2-yl)phenyl]urea” (Celcuity Inc., priority 2021, dated 2025)

Key:
[1] = tested on: Rb-negative tumors; conditions: reported by Michaud et al., Cancer Res. 70:3228-3238 (2010); cited from earlier work
[2] = tested on: patients with ER+/HER2− metastatic breast cancer; experiment: Phase 1b trial, expansion portion: gedatolisib plus palbociclib plus fulvestrant or letrozole; assay type: in vivo, human; conditions: for Overall Response Rate: partial objective response; for # of Partial Responses: patients who failed 2 or more prior lines of therapy; for median duration of treatment, Arm D relative to Arm C: 3 weeks on/1 week off vs weekly
Description: To evaluate this hypothesis, Pfizer initiated a Phase 1b trial dose-finding trial with a four-armed expansion portion for safety and efficacy to evaluate gedatolisib when added to either the standard doses of palbociclib plus letrozole or palbociclib plus fulvestrant in patients with ER+/HER2− metastatic breast cancer. PI3K mutation status was not used as an eligibility criterion. Patient enrollment for the trial is complete. A preliminary analysis for the 103 patients enrolled in the expansion portion of the Phase 1b clinical trial, as of the database cutoff date of Jan. […] 1. Objectives
(§1) This is a Phase 1b, multicenter, open-label, study in patients with mBC. This study has both a dose escalation and expansion portion. The dose escalation portion will identify the MTD of the combination of gedatolisib plus palbociclib/letrozole and gedatolisib plus palbociclib/fulvestrant. The expansion portion will estimate the objective response rate of the combination of gedatolisib plus palbociclib/letrozole and the combination of gedatolisib plus palbociclib/fulvestrant.
The study population for the dose escalation and the dose expansion consists of patients of any menopausal status with ER-positive, HER2-negative, metastatic or locally-recurrent/advanced breast cancer (mBC).
Once the MTD of each combination was determined this triggers the initiation of the expansion portion, which comprises 4 arms, as follows: (1) Arm A: first-line endocrine-based therapy; (2) Arm B: second- or third-line endocrine-based therapy, without prior palbociclib (or other CDK inhibitor) therapy; (3) Arm C: second- or third-line endocrine-based therapy with prior exposure to palbociclib (or other CDK inhibitor) therapy, in which gedatolisib is administered once weekly for four weeks; and (4) Arm D: second or third line endocrine based therapy with progression on palbociclib (or other CDK inhibitor) therapy (as the most recent regimen), in which gedatolisib is administered on a three weeks on/one week off (3:1) schedule.
All cycles are 28 days in length. Gedatolisib is administered IV weekly on Days 1, 8, 15 and 22 of each cycle (except for Arm D, in which gedatolisib is administered on Days 1, 8 and 15 of each cycle), palbociclib is administered at 125 mg/day orally continuously dosed for 3 weeks followed by 1 week off, repeated at each subsequent cycle. Letrozole 2.5 mg daily is administered orally on a continuous basis (daily) and fulvestrant is administered at a dose of 500 mg intramuscularly on Cycle 1 Day 1, Cycle 1 Day 15, Cycle 2 Day 1, and then on […] of each subsequent cycle (±3 days).
Gedatolisib was administered weekly as an IV infusion over approximately 30 minutes. (Dose Escalation; Dose Expansion: Arm A, Arm B and Arm C).
In Arm D of the Dose Expansion portion, gedatolisib was administered on a 3 week on/one week off schedule as an IV infusion over approximately 30 minutes. No premedication was required.
The coprimary efficacy endpoints of the study were (1) first cycle Dose-Limiting Toxicities (DLTs); and (2) Objective response (OR) as assessed by the Investigator.
The secondary efficacy endpoints of the study were: • 1) Safety including adverse events as characterized by type, frequency, severity, timing, seriousness and relationship to study therapy and laboratory abnormalities as characterized by type, frequency, severity and timing. • 2) Tumor response for the dose escalation portion of the study. • 3) DR and PFS (as assessed using the RECIST v 1.1) for the expansion portion of the study. • 4) QTc interval. • 5) Single and multiple dose PK parameters of gedatolisib and palbociclib. Multiple dose PK parameters of fulvestrant and letrozole (Dose Escalation portion only). • 6) Single and multiple dose PK parameters of gedatolisib (Dose Expansion portion only). 7. Results
Arm D patients received gedatolisib (180 mg IV three weeks on/one week off). […]

[3] = Phase 1b trial, dose escalation portion: maximum tolerated dose; assay type: in vivo, human; conditions: IV, in triplet combination with palbociclib and letrozole or fulvestrant
Description: The primary objective of the study was to assess the safety, tolerability, and maximum tolerated dose (MTD) of the triplet combination of gedatolisib added to either the standard dose of the palbociclib/letrozole or palbociclib/fulvestrant.
as §1
The dose escalation portion of the study initially assess safety and tolerability of the 180 mg/week dose of gedatolisib plus standard doses of palbociclib/letrozole or 180 mg/week dose of gedatolisib plus standard doses of palbociclib/fulvestrant. The dose escalation portion then explore escalating doses of gedatolisib plus each regimen. During the dose escalation 10 DLT evaluable patients are treated at the expected MTD.
The conventional approach to determining the dosing schedule for a therapeutic regimen for cancer patients is to determine the maximum tolerated dose in a Phase 1 clinical trial. […]

[4] = Stability of crystalline form on storage; assay type: physicochemical; conditions: 25° C. and 60% Relative Humidity (RH)
Description: (§2) Gedatolisib is a pan-class I isoform PI3K/mTOR inhibitor with high potency (NCT02626507, Apr. 24, 2020). The chemical synthesis of gedatolisib is disclosed in U.S. Pat. Nos. 8,039,469; 8,217,036; 8,445,486; 8,575,159; 8,748,421; 8,859,542; 9,174,963; 10,022,381, which are hereby incorporated by reference in their entirety. […] Accordingly, formulations that allow for therapeutic dosage levels have been developed.

[5] = Aqueous solubility / achievable solution concentration; assay type: physicochemical; conditions: free base; for aqueous IV or parenteral solution at therapeutic dosage levels
Description: as §2, with “developed. The formulations include gedatolisib, or a methanesulphonate salt thereof, methanesulphonic acid, and water. […] Another formulation disclosed is gedatolisib, or an ethanesulphonate salt thereof, ethanesulphonic acid and water.” for “developed.”

[6] = tested on: MCF7 xenograft model (ER+/HER2−/PIK3CA mutant); conditions: cited from earlier work
[7] = aqueous formulation with methanesulphonic acid or ethanesulphonic acid; WO2019038657; cited from earlier work
[8] = Arm C, weekly, failed 2 or more prior lines of therapy
[9] = Arm D vs Arm C, failed 2 or more prior lines of therapy
[10] = Arm D, 3 weeks on/1 week off, DIPT < 180 days
[11] = Arm D, 3 weeks on/1 week off, DIPT < 365 days
[12] = Arm D, 3 weeks on/1 week off, failed 2 or more prior lines of therapy

## CC(=O)c1c(C)c2cnc(Nc3ccc(N4CCNCC4)cn3)nc2n(C2CCCC2)c1=O [PD-0332991, 6-acetyl-8-cyclopentyl-5-methyl-2-(5-piperazin-1-yl-pyridin-2-ylammino)-8H-pyrido-[2,3-d]-pyrimidin-7-one]
[1]
  activity against Rb-negative tumors: inactive

## CN(C)C1CCN(C(=O)c2ccc(NC(=O)Nc3ccc(-c4nc(N5CCOCC5)nc(N5CCOCC5)n4)cc3)cc2)CC1 [gedatolisib, 1-(4-{[4-(Dimethylamino)piperidin-1-yl]carbonyl}phenyl)-3-[4-(4,6-dimorpholin-4-yl-1,3,5-triazin-2-yl)phenyl]urea]
[2]; Arm C, weekly gedatolisib with palbociclib and fulvestrant, DIPT < 180 days
  Median Duration of Gedatolisib (DGT) Treatment: 81 days
[2]; Arm C, weekly gedatolisib with palbociclib and fulvestrant, DIPT < 365 days
  Median Duration of Gedatolisib (DGT) Treatment: 131 days
[2]; Arm C, weekly, DIPT < 180 days
  Ratio of median DIPT vs. DGT: 0.8
  Overall Response Rate: 0%
[2]; Arm C, weekly, DIPT < 180 days, listed as Gedatolisib
  Overall Response Rate: 0%
[2]; Arm C, weekly, DIPT < 365 days
  Ratio of median DIPT vs. DGT: 0.9
  Overall Response Rate: 15%
[2]; Arm C, weekly, DIPT < 365 days, listed as Gedatolisib
  Overall Response Rate: 15%
[2]; [8]
  Mean Progression Free Survival: 233
  Objective Response Rate: 32%
[2]; Arm C, weekly, 19 evaluable
  # of Partial Responses: 6
[2]; [9]
  Mean Progression Free Survival, Odds Ratio: 2.28
  Objective Response Rate, Odds Ratio: 2.4
[2]; Arm D vs Arm C, failed 2 or more prior lines of therapy, listed as Gedatolisib
  Objective Response Rate, Odds Ratio: 2.44
[2]; [10]
  Ratio of median DIPT vs. DGT: 2.6
  Overall Response Rate: 71%
[2]; Arm D, 3 weeks on/1 week off, DIPT < 180 days, listed as Gedatolisib
  Overall Response Rate: 71%
[2]; [11]
  Ratio of median DIPT vs. DGT: 1.8
  Overall Response Rate: 73%
[2]; Arm D, 3 weeks on/1 week off, DIPT < 365 days, listed as Gedatolisib
  Overall Response Rate: 73%
[2]; [12]
  Mean Progression Free Survival: 531
  Objective Response Rate: 78%
[2]; Arm D, 3 weeks on/1 week off, 9 evaluable
  # of Partial Responses: 7
[2]; Arm D, gedatolisib 180 mg IV 3 weeks on/1 week off with palbociclib and fulvestrant, DIPT < 180 days
  Median Duration of Gedatolisib (DGT) Treatment: 270 days
[2]; Arm D, gedatolisib 180 mg IV 3 weeks on/1 week off with palbociclib and fulvestrant, DIPT < 365 days
  Median Duration of Gedatolisib (DGT) Treatment: 276 days
[2]; Arm D: prior endocrine therapy plus CDK4/6 inhibitor, gedatolisib 3 weeks on/1 week off with palbociclib and fulvestrant
  Median progression free survival: 13.2 months
[2]; expansion portion, all arms, 88 evaluable patients, confirmed PR or stable disease for 24 weeks, cutoff Jan. 11, 2021
  clinical benefit rate (CBR): 75%
[2]; expansion portion, all arms, 88 evaluable patients, confirmed or unconfirmed PR, with palbociclib plus letrozole or fulvestrant, cutoff Jan. 11, 2021, preliminary analysis
  objective response rate (ORR): 60%
[2]; patients who progressed on immediate prior therapy in ≤6 months
  median duration of treatment, Arm D relative to Arm C: more than 3 times
[2]; patients who progressed on immediate prior therapy in ≤12 months
  median duration of treatment, Arm D relative to Arm C: more than two times longer
[3]
  maximum tolerated dose: 180 mg weekly
[4]
  chemically and physically stable for: up to 3 years
[5]
  water solubility: insufficiently water soluble
[6]; after triplet therapy (gedatolisib, palbociclib, fulvestrant)
  time tumors remained dormant without further therapy: up to 90 days
[6]; combination of gedatolisib with palbociclib and fulvestrant, Pfizer internal preclinical study
  tumor response: durable tumor regressions
[6]; triplet therapy (gedatolisib, palbociclib, fulvestrant)
  time for tumors to regress to minimal volumes: ≤ 20 days
[7]
  solution concentration achieved (clear, essentially particle-free solution): up to 30 mg/ml
